Test results from ChEMBL document CHEMBL1201862, “PubChem BioAssay data set” (2004).
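Assay format: 96-well plates, 48-hour exposure. Abbreviation: GI50, concentration required for 50% inhibition of growth.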 The source made the active and inactive calls. No stated cut-off is given here; in the data, active = GI50 up to about 1.1 µM and inactive = higher.

Assays:
Assay in all cases: growth of human tumour cells (NCI), 48 h
DU-145 = system: DU-145
MDA-MB-435 = system: MDA-MB-435
SN12C = system: SN12C
NCI/ADR-RES = system: NCI/ADR-RES
K562 = system: K562
Hs-578T = system: Hs-578T
HT-29 = system: HT-29
EKVX = system: EKVX
OVCAR-8 = system: OVCAR-8
M14 = system: M14
NCI-H23 = system: NCI-H23
786-0 = system: 786-0
CCRF-CEM = system: CCRF-CEM
Malme-3M = system: Malme-3M
OVCAR-3 = system: OVCAR-3
CAKI-1 = system: CAKI-1
MOLT-4 = system: MOLT-4
LOX IMVI = system: LOX IMVI
SF-295 = system: SF-295
MDA-N = system: MDA-N
NCI-H226 = system: NCI-H226
UACC-257 = system: UACC-257
RPMI-8226 = system: RPMI-8226
SK-MEL-2 = system: SK-MEL-2
NCI-H522 = system: NCI-H522
MDA-MB-231 = system: MDA-MB-231
SK-MEL-28 = system: SK-MEL-28
SW-620 = system: SW-620
ACHN = system: ACHN
COLO 205 = system: COLO 205
KM12 = system: KM12
A549 = system: A549
IGROV-1 = system: IGROV-1
BT-549 = system: BT-549
HCT-15 = system: HCT-15
SF-539 = system: SF-539
UO-31 = system: UO-31
OVCAR-5 = system: OVCAR-5
SF-268 = system: SF-268
HOP-62 = system: HOP-62
U-251 = system: U-251
SNB-19 = system: SNB-19
HL-60 = system: HL-60
HOP-92 = system: HOP-92
HCT-116 = system: HCT-116
SK-MEL-5 = system: SK-MEL-5
SK-OV-3 = system: SK-OV-3
SNB-75 = system: SNB-75
RXF 393 = system: RXF 393
MCF7 = system: MCF7
OVCAR-4 = system: OVCAR-4
T47D = system: T47D
PC-3 = system: PC-3
TK-10 = system: TK-10
NCI-H460 = system: NCI-H460
HCC 2998 = system: HCC 2998
A498 = system: A498

With O=C(c1ccccc1)c1ccc2[nH]c(-c3c(Cl)c(Cl)c(Cl)c(Cl)c3C(=O)N/N=C/c3ccccc3)nc2c1 the GI50 (DU-145) was 38 µM (inactive), the GI50 (MDA-MB-435) was 9.25 µM (inactive) and the GI50 (SN12C) was 18.9 µM (inactive). For the same compound, the GI50 (NCI/ADR-RES) was 19.8 µM (inactive), the GI50 (K562) was 27.7 µM (inactive) and the GI50 (Hs-578T) was 37.7 µM (inactive). The GI50 (HT-29) was 30.8 µM (inactive), the GI50 (EKVX) was 18.4 µM (inactive) and the GI50 (OVCAR-8) was 32.2 µM (inactive). For the same compound, the GI50 (M14) was 31.2 µM (inactive), the GI50 (NCI-H23) was 23 µM (inactive) and the GI50 (786-0) was 26.1 µM (inactive). For the same compound, the GI50 (CCRF-CEM) was 12.3 µM (inactive), the GI50 (Malme-3M) was 26.1 µM (inactive) and the GI50 (OVCAR-3) was 19.6 µM (inactive). The GI50 (CAKI-1) was 34.1 µM (inactive), the GI50 (MOLT-4) was 11.2 µM (inactive) and the GI50 (LOX IMVI) was 26.4 µM (inactive). For the same compound, the GI50 (SF-295) was 22.4 µM (inactive), the GI50 (MDA-N) was 16.3 µM (inactive) and the GI50 (NCI-H226) was 19.9 µM (inactive). The GI50 (UACC-257) was 23.3 µM (inactive), the GI50 (RPMI-8226) was 23.4 µM (inactive) and the GI50 (SK-MEL-2) was 21.6 µM (inactive). The GI50 (NCI-H522) was 18.1 µM (inactive), the GI50 (MDA-MB-231) was 19.2 µM (inactive) and the GI50 (SK-MEL-28) was 24 µM (inactive). For the same compound, the GI50 (SW-620) was 37.2 µM (inactive), the GI50 (ACHN) was 16.7 µM (inactive) and the GI50 (COLO 205) was 17.5 µM (inactive). The GI50 (KM12) was 28.2 µM (inactive), the GI50 (A549) was 27.7 µM (inactive) and the GI50 (IGROV-1) was 14.9 µM (inactive). The GI50 (BT-549) was 28.5 µM (inactive), the GI50 (HCT-15) was 23.2 µM and the GI50 (SF-539) was 25.1 µM (inactive). The GI50 (UO-31) was 27.5 µM (inactive), the GI50 (OVCAR-5) was 36.9 µM (inactive) and the GI50 (SF-268) was 27.5 µM (inactive). The GI50 (HOP-62) was 23.1 µM (inactive), the GI50 (U-251) was 35.8 µM (inactive) and the GI50 (SNB-19) was 32.6 µM (inactive). For the same compound, the GI50 (HL-60) was 18.6 µM (inactive), the GI50 (HOP-92) was 23.7 µM (inactive) and the GI50 (HCT-116) was 32.1 µM (inactive). For the same compound, the GI50 (SK-MEL-5) was 14.5 µM (inactive), the GI50 (SK-OV-3) was 35.7 µM (inactive) and the GI50 (SNB-75) was 17.9 µM (inactive). The GI50 (RXF 393) was 14.4 µM (inactive), the GI50 (MCF7) was 13.6 µM (inactive) and the GI50 (OVCAR-4) was 16.4 µM (inactive). For the same compound, the GI50 (T47D) was 14.7 µM (inactive), the GI50 (PC-3) was 24.1 µM (inactive) and the GI50 (TK-10) was 38.8 µM (inactive).
With OCCSCc1cc2c(O)c(c1)Cc1cc(CSCCO)cc(c1O)Cc1cc(CSCCO)cc(c1O)Cc1cc(CSCCO)cc(c1O)C2 the GI50 (DU-145) was 4.91 µM (inactive), the GI50 (NCI-H460) was 2.89 µM (inactive) and the GI50 (HCC 2998) was 9.38 µM (inactive). For the same compound, the GI50 (MDA-MB-435) was 2.83 µM (inactive), the GI50 (SN12C) was 4.59 µM (inactive) and the GI50 (NCI/ADR-RES) was 22.2 µM (inactive). For the same compound, the GI50 (K562) was 7.28 µM (inactive), the GI50 (Hs-578T) was 8.43 µM (inactive) and the GI50 (HT-29) was 2.88 µM (inactive). The GI50 (EKVX) was 15 µM (inactive), the GI50 (OVCAR-8) was 5.09 µM (inactive) and the GI50 (M14) was 3.08 µM (inactive). For the same compound, the GI50 (NCI-H23) was 5.37 µM (inactive), the GI50 (786-0) was 3.29 µM (inactive) and the GI50 (CCRF-CEM) was 5.35 µM (inactive). The GI50 (Malme-3M) was 2.04 µM (inactive), the GI50 (OVCAR-3) was 1.73 µM (inactive) and the GI50 (CAKI-1) was 3.1 µM (inactive). For the same compound, the GI50 (MOLT-4) was 3.35 µM (inactive), the GI50 (LOX IMVI) was 3.44 µM (inactive) and the GI50 (SF-295) was 5.02 µM (inactive). The GI50 (MDA-N) was 3.42 µM (inactive), the GI50 (NCI-H226) was 10.4 µM (inactive) and the GI50 (UACC-257) was 4.23 µM (inactive). The GI50 (RPMI-8226) was 3.95 µM (inactive), the GI50 (A498) was 6.15 µM (inactive) and the GI50 (SK-MEL-2) was 2.32 µM (inactive). The GI50 (NCI-H522) was 2.18 µM (inactive), the GI50 (MDA-MB-231) was 2.54 µM (inactive) and the GI50 (SK-MEL-28) was 3.56 µM (inactive). The GI50 (SW-620) was 3.92 µM (inactive), the GI50 (ACHN) was 3.19 µM (inactive) and the GI50 (COLO 205) was 2.68 µM (inactive). The GI50 (KM12) was 4.28 µM (inactive), the GI50 (A549) was 4.86 µM (inactive) and the GI50 (IGROV-1) was 3.65 µM (inactive). For the same compound, the GI50 (BT-549) was 3.3 µM (inactive), the GI50 (HCT-15) was 8.81 µM and the GI50 (SF-539) was 4.02 µM (inactive). For the same compound, the GI50 (UO-31) was 13.8 µM (inactive), the GI50 (OVCAR-5) was 5.6 µM (inactive) and the GI50 (SF-268) was 2.88 µM (inactive). For the same compound, the GI50 (HOP-62) was 5.01 µM (inactive), the GI50 (U-251) was 4.48 µM (inactive) and the GI50 (SNB-19) was 4.69 µM (inactive). For the same compound, the GI50 (HL-60) was 4.04 µM (inactive), the GI50 (HOP-92) was 4.26 µM (inactive) and the GI50 (HCT-116) was 4.02 µM (inactive). The GI50 (SK-MEL-5) was 2.69 µM (inactive), the GI50 (SK-OV-3) was 8.47 µM (inactive) and the GI50 (RXF 393) was 4.58 µM (inactive). The GI50 (MCF7) was 3.91 µM (inactive), the GI50 (OVCAR-4) was 3.61 µM (inactive) and the GI50 (T47D) was 6.47 µM (inactive). The GI50 (PC-3) was 3.51 µM (inactive) and the GI50 (TK-10) was 4.8 µM (inactive).
